From patent publication US9586947B2, “Imidazoline derivatives, preparation methods thereof, and their applications in medicine” (priority 2012, dated 2017)
Where two headings read alike, the source gives them in different places.

Experiments:
[1] = tested on: PSA secretion of LNCaP cells; experiment: Inhibitory activity on PSA secretion of LNCaP cells; format: cell-based; conditions: Homo sapiens, 96 h, read-out: IC50 (inhibition of PSA secretion of LNCaP cells)
LNCaP cells = experiment: Proliferation inhibition of LNCaP cells (CCK-8); format: cell-based; conditions: Homo sapiens, 144 h, cultured 3 + 3 days, CCK-8, OD at 450 nm
[2] = tested on: PSA secretion of LNCaP-AR cells (AR-overexpressed LNCaP cells); experiment: Agonist activity on PSA secretion of LNCaP-AR cells; format: cell-based; conditions: 96 h, 4 days, OD value (test compounds)/OD value (blank control), blank control 100
Method: The following in vitro assay was performed to determine the activity of a high concentration of the compounds of the present invention for agitating the PSA secretion of LNCaP-AR cells (AR-overexpressed LNCaP cells, referred to as “LNCaP-AR cells” for short, constructed by a retroviral transfection method).
LNCaP-AR cells were subcultured in cell culture medium, resuspended in active carbon culture medium, and then inoculated into a 96-well plate (100 μl/well) with an inoculation density of 5×10^4 cells/well.
The test compounds were dissolved in DMSO (dimethyl sulfoxide) and prepared as a 10 mM stock solution. When used, the stock solution was diluted with DMSO into the two concentrations of 2 mM and 0.6 mM. Then, the diluted concentrations were each diluted with 20× active carbon culture medium, in order to ensure DMSO concentration in each culture system was 0.5%. Diluted test compounds remained to be tested.
10 μl of diluted test compounds were added to a 96-well plate and mixed gently. 10 μl of 0.5% DMSO diluted with active carbon culture medium was added to the blank control group.
After 4 days of incubation, 60 μl of cell cultural supernatants were collected, and the OD value of PSA per well was measured on a NOVO Star microplate reader using PSA kit (abnova, KA0208).
Agonist activity of the test compounds of the present invention on PSA secretion of LNCaP-AR cells was evaluated by the percentage of OD value (test compounds)/OD value (blank control). When the percentage value is greater than 100, the test compounds have agonist activity on PSA secretion of LNCaP-AR cells compared to the blank control. Conversely, when the percentage value is less than 100, the test compounds have no agonist activity on PSA secretion of LNCaP-AR cells compared to the blank control.

[3] = Pharmacokinetics assay in rats, intragastric administration; format: in vivo; conditions: Sprague-Dawley, rat, po, male SD rats, 5 mg/kg; for Vd/F: read-out: Apparent Distribution Volume Vz/F; for AUC: read-out: Area Under Curve AUC; for CL/F: read-out: Clearance CLz/F; for half-life: read-out: Half-Life T½ (converted); for MRT: read-out: Mean Residence Time MRT; for Cmax: read-out: Plasma Conc. Cmax
Method: Male rats were used as test animals. The compounds of Example 6, Example 9, Example 11, Example 13, Example 15, Example 16, Example 17, Example 44, and Example 45 were administered intragastrically to rats to determine the drug concentration in plasma at different time points by LC/MS/MS method. The pharmacokinetic behavior of the compounds of the present invention was studied and evaluated in rats.
27 healthy adult male Sprague-Dawley (SD) rats, purchased from SINO-BRITISH SIPPR/BK LAB. ANIMAL LTD., CO, Certificate No.: SCXK (Shanghai) 2008-0016, were divided into 9 groups, with 3 rats in each group.
The appropriate amount of test compounds was weighed and mixed with 0.5% CMC-Na to prepare a 0.5 mg/mL suspension by an ultrasonic method.
After an overnight fast, 27 SD rats were divided into 9 groups, and administered the compounds intragastrically at a dose of 5.0 mg/kg and an administration volume of 10 mL/kg.
Compounds of Example 6, Example 9, Example 11, Example 13, Example 15, Example 16, Example 17, Example 44, and Example 45 were administered intragastrically to rats. Blood samples (0.1 mL) were taken from the orbital sinus before administration, and at 0.5 h, 1.0 h, 2.0 h, 3.0 h, 4.0 h, 6.0 h, 8.0 h, 11.0 h, and 24.0 h after administration, stored in heparinized tubes, and centrifuged for 5 minutes at 3,500 rpm to separate blood plasma. The plasma samples were stored at −20° C. The rats were fed 2 hours after administration.
The concentration of the different test compounds in rat plasma after intragastrically administering the test compounds was determined by LC-MS/MS method. The linearity of the method is 1.00-2000 ng/ml. Plasma samples were analyzed after protein precipitation was accomplished by the addition of methanol.

[4] = LNCaP cells, 1 nM testosterone medium, 4 days of incubation, PSA kit OD450

## CC1(C)C(=O)N(c2ccc(C#N)c(C(F)(F)F)c2)C(=S)N1c1ccc(OCCO)c(F)c1 [Example 12, 4-(3-(3-Fluoro-4-(2-hydroxyethoxy)phenyl)-4,4-dimethyl-5-oxo-2-thioxoimidazolidin-1-yl)-2-(trifluoromethyl)benzonitrile]
[1]; [4]
  IC50: 33 nM
LNCaP cells
  IC50: 146 nM
[2]
  activity at 3 µM: 69.6%
  activity at 10 µM: 90.7%

## CC1(C)C(=O)N(c2ccc(C#N)c(C(F)(F)F)c2)C(=S)N1c1ccc(OCCO)nc1 [Example 10, 4-(3-(6-(2-Hydroxyethoxy)pyridin-3-yl)-4,4-dimethyl-5-oxo-2-thioxoimidazolidin-1-yl)-2-(trifluoromethyl)benzonitrile]
[1]; [4]
  IC50: 23 nM
LNCaP cells
  IC50: 131 nM
[2]
  activity at 3 µM: 74.7%
  activity at 10 µM: 68.1%

## CC1(C)C(=O)N(c2ccc(C#N)c(C(F)(F)F)c2)C(=S)N1c1ccc(OC[C@@H](O)CO)cc1 [Example 44, (S)-4-(3-(4-(2,3-Dihydroxypropoxy)phenyl)-4,4-dimethyl-5-oxo-2-thioxoimidazolidin-1-yl)-2-(trifluoromethyl)benzonitrile]
[1]; [4]
  IC50: 22 nM
LNCaP cells
  IC50: 33 nM
[2]
  activity at 3 µM: 77.2%
  activity at 10 µM: 92.7%
[3]; plasma
  Vd/F: 2.45 ± 0.376 L/kg
  AUC: 19300 ± 4170 ng·h/mL
  CL/F: 4.47 ± 1.08 mL/min/kg
  half-life: 6.41 ± 0.6 h
  MRT: 10.5 ± 1.3 h
  Cmax: 1300 ± 275 ng/mL

## CC1(C)C(=O)N(c2ccc(C#N)c(C(F)(F)F)c2)C(=S)N1c1ccc(O[C@H]2COC[C@@H]2O)c(F)c1 [Example 9, 4-(3-(3-fluoro-4-(((3S,4S)-4-hydroxytetrahydrofuran-3-yl)oxy)phenyl)-4,4-dimethyl-5-oxo-2-thioxoimidazolidin-1-yl)-2-(trifluoromethyl)benzonitrile]
[1]; LNCaP
  IC50: 26 nM
[2]
  activity at 3 µM: 90.8%
  activity at 10 µM: 85%
[3]; in vivo
  Vd/F: 4.59 ± 0.556 L/kg
  AUC: 18800 ± 3300 ng·h/mL
  CL/F: 4.52 ± 0.77 mL/min/kg
  half-life: 11.8 ± 1.1 h
  MRT: 18.3 ± 1.9 h
  Cmax: 772 ± 83 ng/mL

## CC1(C)C(=O)N(c2ccc(C#N)c(C(F)(F)F)c2)C(=S)N1c1ccc(OCC(O)CO)c(F)c1 (stereo not drawn) [Example 13, 4-(3-(4-(2,3-Dihydroxypropoxy)-3-fluorophenyl)-4,4-dimethyl-5-oxo-2-thioxoimidazolidin-1-yl)-2-(trifluoromethyl)benzonitrile]
[1]; LNCaP
  IC50: 88 nM
[2]
  activity at 3 µM: 53.6%
  activity at 10 µM: 71.5%
[3]; in vivo
  Vd/F: 2.31 ± 0.553 L/kg
  AUC: 26500 ± 7380 ng·h/mL
  CL/F: 3.35 ± 1.1 mL/min/kg
  half-life: 8.1 ± 0.65 h
  MRT: 13.1 ± 1.5 h
  Cmax: 1550 ± 197 ng/mL
